# Measurements: patent US8187878B2, “Methods for increasing definitive endoderm differentiation of pluripotent human embryonic stem cells with PI-3 kinase inhibitors” (University of Georgia Research Foundation, Inc., priority 2004, dated 2012)
# Legend:
# BG01 cells [1] = assay: Sox17 Q-PCR, GSK3 inhibitor on LY 294002 induced DE formation; type: cell-based, human; details: 60 μM LY 294002; BIO 0.1-5 μM, MeBIO 1-5 μM; 3-4 days
# Procedure: BG01 cells were passaged on matrigel using the collagenase/trypsin method as described above and were plated on matrigel-coated chamber slides in CM. After approximately 24 hours, the medium was changed, and the cells were treated with 60 μM LY 294002, BIO, meBIO, or DMSO for approximately 3-4 days. The inhibitor BIO (Dr. Ali Brivanlou) was diluted in DMSO and was used at a concentration of approximately 0.1-5 μM. MeBIO (Dr. Ali Brivanlou) was also diluted in DMSO and used at a concentration of approximately 1-5 μM. Assays were performed in triplicate and are shown as +/−SEM.
# Cells were grown in these conditions for approximately 3-4 days with a medium change every 24 hours. Cells were harvested using the collagenase/trypsin method for Q-PCR as described above
# hESCs = assay: Kidney capsule assay of LY 294002 treated hESCs; type: in vivo, SCID-beige mice; details: relative to LY 294002 treated cells that were not implanted
# Procedure: Untreated hESCs or hESCs treated for 4 days with 60 μM LY 294002 were collagenase treated to generate cell aggregates (˜50 cells/aggregate), washed in warm media, then gently resuspended in 2 ml DMEM/F12, 10% FCS and left overnight at 37° C., 10% CO2 to facilitate further aggregation. Approximately 2.5×10^6 cells were injected into the kidney capsule of 5 week old male SCID-beige mice. 6 weeks after transplantation, mice were sacrificed, and the kidneys were removed and fixed in 4% paraformaldehyde. Following fixation, kidneys were embedded in paraffin wax, sectioned and mounted onto glass slides in preparation for H&E and immunostaining. After mounting, slides underwent deparaffinization, rehydration and heat induced epitope retrieval with Trilogy (Cell Marque, CMX-833). Slides were stained using the alkaline phosphatase Vectastain ABC System (Vector Labs, AK-5002) and Vector Red substrate (Vector Labs, SK-5100). […] For fluorescence immunocytochemistry the following secondary antibodies were used; Alexa Fluor 488 goat anti-mouse IgG (Molecular Probes, A11001), Alexa Fluor 594 goat anti-rabbit IgG (Molecular Probes, A11012).
# BG01 cell line = assay: SOX17 and AFP immunofluorescence staining; type: cell-based, human
# Procedure: Cells to be immunostained were grown on chamber slides, and were rinsed once with 1×PBS and fixed for 10 minutes in 4% PFA/4% sucrose in PBS pH 7.4 at room temperature. They were then rinsed 3× in 1×PBS and blocked in 3% goat serum with 0.1% Triton-X100 in PBS for 1 hour at room temperature. Primary antibodies were diluted in 3% goat serum in PBS and this solution was applied overnight at 4° C. The primary antibodies used were rabbit anti-human AFP (Zymed), used at a 1:50 dilution, and rat anti-human SOX17 (obtained from Cythera, Inc.), used at 1:1000 dilution. Cells were washed for 1 hour with 3 changes of 1×PBS. Secondary antibodies were applied for 2 hours at room temperature. Secondary antibodies used were goat anti-rabbit Alexa Fluor 488 and goat anti-rat Alexa Fluor 594 (Molecular Probes), both at a 1:1000 dilution in 3% goat serum in 1×PBS. Cells were washed for 1 hour with 3 changes of 1×PBS. The chambers were removed and slides were mounted in VectaShield mounting medium with DAPI (Vector).
# hESC = assay: Sox17 Q-PCR, MEF-CM and LY 294002 with signaling inhibitors; type: cell-based, human; details: proteins approximately 500 ng/ml, SB-43152 approximately 10 μM, SU-5402 approximately 5 μM
# Procedure: Sox 17 expression was evaluated by Q-PCR under culture conditions competent to support hESC-DE formation (MEF-CM and LY 294002) in the presence or absence of Chordin (approximately 500 ng/ml), Follistatin (approximately 500 ng/ml), Lefty-A (approximately 500 ng/ml), Noggin (approximately 500 ng/ml), SB-43152 (approximately 10 μM), and SU-5402 (approximately 5 μM). Assays were performed in triplicate and are shown as +/−SEM.
# BG01 cells [2] = assay: Sox17 Q-PCR, LY 294002 with conditioned medium or TGFβ members; type: cell-based, human; details: UCM, approximately 4 days
# Procedure: BG01 cells were passaged from feeders using the collagenase/trypsin method and were plated on matrigel coated dishes at 1×10^5 cells/35 mm dish in unconditioned hES medium (UCM). After approximately 24 hours, the media was replaced with fresh hES medium or MEF-CM, along with LY 294002, Activin A, or Nodal as shown in FIG. 8A. LY 294002 was used at a concentration of approximately 60 μM; Activin A was used at a concentration of approximately 100 ng/ml; and Nodal was used at a concentration of approximately 1 μg/ml. Cells were treated for approximately 4 days, with a change in medium every 24 hours. Cells were harvested using the collagenase/trypsin method for Q-PCR analysis. Sox-17 Q-PCR was performed as described in Example 3.
molecule,measurement,setting,value
O=C1Nc2cc(Br)ccc2/C1=C1/Nc2ccccc2/C1=N\O [BIO],LY 294002 induced DE formation as determined by Sox17 expression,BG01 cells [1],blocked
O=c1cc(N2CCOCC2)oc2c(-c3ccccc3)cccc12 [LY 294002],increase in FABP1 mRNA,hESCs,1000 fold
same,increase in albumin mRNA,hESCs,4500 fold
same,cell population expressing SOX17,BG01 cell line; counting 500 cells,60%
same,cells expressing SOX17,BG01 cell line; of 500 cells counted,296 cells
NC(=O)c1ccc(-c2nc(-c3ccccn3)c(-c3ccc4c(c3)OCO4)[nH]2)cc1 [SB-43152],"LY 294002, MEF-CM dependent Sox17 expression",hESC,suppressed
MeBIO,LY 294002 induced DE formation as determined by Sox17 expression,BG01 cells [1],not
"Nodal: member of the TGFβ family (protein, UniProt Q96S42 238-347, looked up) Nodal homolog: HHLPDRSQLCRKVKFQVDFNLIGWGSWIIYPKQYNAYRCEGECPNPVGEEFHPTNHAYIQSLLKRYQPHRVPSTCCAPVKTKPLSMLYVDNGRVLLDHHKDMIVEECGCL",Sox17 expression (fold-increase over untreated),BG01 cells [2]; LY 294002 approximately 60 μM plus Nodal approximately 1 μg/ml,Significant Sox17 expression
"Follistatin: inhibitor of Activin signaling (protein, UniProt P19883 30-344, looked up) Follistatin: GNCWLRQAKNGRCQVLYKTELSKEECCSTGRLSTSWTEEDVNDNTLFKWMIFNGGAPNCIPCKETCENVDCGPGKKCRMNKKNKPRCVCAPDCSNITWKGPVCGLDGKTYRNECALLKARCKEQPELEVQYQGRCKKTCRDVFCPGSSTCVVDQTNNAYCVTCNRICPEPASSEQYLCGNDGVTYSSACHLRKATCLLGRSIGLAYEGKCIKAKSCEDIQCTGGKKCLWDFKVGRGRCSLCDELCPDSKSDEPVCASDNATYASECAMKEAACSSGVLLEVKHSGSCNSISEDTEEEEEDEDQDYSFPISSILEW","LY 294002, MEF-CM dependent Sox17 expression",hESC,suppressed
"Activin A: member of the TGFβ family (protein, UniProt P08476 311-426, looked up) Inhibin beta A chain: GLECDGKVNICCKKQFFVSFKDIGWNDWIIAPSGYHANYCEGECPSHIAGTSGSSLSFHSTVINHYRMRGHSPFANLKSCCVPTKLRPMSMLYYDDGQNIIKKDIQNMIVEECGCS",Sox17 expression (fold-increase over untreated),BG01 cells [2]; LY 294002 approximately 60 μM plus Activin A approximately 100 ng/ml,Significant Sox17 expression
